Test results reported in PubChem BioAssay (NCI).
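Cultured in 96-well plates, cells were exposed to test compound for 48 hours across five concentrations. GI50: concentration for 50% inhibition of growth. TGI denotes the concentration required for complete inhibition of growth.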

How the values were obtained:
Test in all cases: NCI anticancer screen, dose series, 48 h
NCI-H226 lung = test system: NCI-H226 lung
SF-268 CNS = test system: SF-268 CNS
ACHN renal = test system: ACHN renal
OVCAR-3 ovarian = test system: OVCAR-3 ovarian
HT29 colon = test system: HT29 colon
TK-10 renal = test system: TK-10 renal
U251 CNS = test system: U251 CNS
UACC-257 melanoma = test system: UACC-257 melanoma
HCC-2998 colon = test system: HCC-2998 colon
MCF7 breast = test system: MCF7 breast

SMILES	TGI (NCI-H226 lung) [µM]	TGI (SF-268 CNS) [µM]	TGI (ACHN renal) [µM]	TGI (OVCAR-3 ovarian) [µM]	TGI (HT29 colon) [µM]	TGI (TK-10 renal) [µM]	TGI (U251 CNS) [µM]	TGI (UACC-257 melanoma) [µM]	TGI (HCC-2998 colon) [µM]	TGI (MCF7 breast) [µM]	GI50 (NCI-H226 lung) [nM]	GI50 (SF-268 CNS) [µM]	GI50 (ACHN renal) [nM]	GI50 (OVCAR-3 ovarian) [µM]	GI50 (HT29 colon) [µM]	GI50 (TK-10 renal) [nM]	GI50 (U251 CNS) [nM]	GI50 (UACC-257 melanoma) [nM]	GI50 (HCC-2998 colon) [nM]	GI50 (MCF7 breast) [µM]
CC1(C)CC(=O)C(C=NC(=S)c2ccccc2)=C(O)C1	> 100	> 100	> 100	> 100	> 100	> 100	> 100	> 100	> 100	> 100	–	–	–	–	–	–	–	–	–	–
CCOC(=O)c1ccc(NC(=O)Oc2ccc3c(C)cc(=O)oc3c2)cc1	81.3	> 100	> 100	> 100	> 100	> 100	> 100	> 100	51.1	88	–	–	–	–	–	–	–	–	–	–
CC(=O)N(C(C)=O)c1ncc(-n2nc(-c3ccccc3)cc2-c2ccccc2)c(-c2ccccc2)n1	> 10	> 10	> 10	> 10	> 10	> 10	> 10	> 10	> 10	> 10	–	–	–	–	–	–	–	–	–	–
CC(=O)OC1COC(Oc2c(C)c3c4c(c2O)[C@@H](C)CC[C@@H]4[C@@H](C)C[C@H]3C=C(C)C)C(O)C1OC(C)=O (stereo not given in full)	31.4	> 100	22.9	23.3	74.4	46.3	22.5	28.4	8.84	> 100	14200	27.6	11000	10.6	25.6	24100	10400	14100	2300	17.5
Cc1cc(Cl)cc(OCCn2cc(F)cn2)c1-c1nc(N)nc2c1CN(C(=O)NCC(C)(F)F)C2	> 100	> 100	> 100	> 100	> 100	> 100	> 100	> 100	> 100	> 100	233	> 55.4	184	0.54	0.0355	144	114	142	315	0.0339
CC(=O)CCn1c(=S)sc2ccccc21	> 100	> 100	> 100	> 100	> 100	> 100	> 100	> 100	> 100	> 100	–	–	–	–	–	–	–	–	–	–
CO/N=C(\C(=O)OC(=NC1CCCCC1)NC1CCCCC1)c1csc(NC(c2ccccc2)(c2ccccc2)c2ccccc2)n1	> 10	> 10	> 10	> 10	> 10	> 10	> 10	> 10	> 10	> 10	–	–	–	–	–	–	–	–	–	–
CCOC(=O)C1=CN(C)C=C(C(=O)OCC)C1c1cc(Br)c(OCC)c(OC)c1	> 100	> 100	> 100	> 100	> 100	> 100	> 100	> 100	> 100	> 100	> 100000	> 100	> 100000	48	34.5	> 100000	> 100000	> 100000	> 100000	32
COc1ccc(OC)c2c1[nH]c(=O)c1c3ccccc3cn21	3.29	3.04	2.37	3.31	2.54	3.76	2.76	3.73	2.68	1.98	1610	1.42	1110	1.64	0.813	2010	1370	2000	1340	0.0727
C/C=C(\C)C(=O)O[C@H]1C=CC(=O)O[C@H]1CCC(=O)[C@H](C)O	34.8	26.1	23.4	22.3	23.5	34	26.4	> 57	32.4	21.9	15100	11.3	11000	9.58	8.61	17700	12900	22600	17100	7.47
NC(=O)/C=C/C(=O)c1c(Cl)cccc1Cl	8.25	3.21	0.853	1.72	> 100	2.92	2.67	2.68	2.88	1.79	2520	1.71	323	0.533	1.55	1220	1360	1380	1510	0.444
